From article PMC6105845, “Nucleotide Prodrug Containing a Nonproteinogenic Amino Acid To Improve Oral Delivery of a Hepatitis C Virus Treatment” (Antimicrobial Agents and Chemotherapy, 2018)

Target: HINT1 (Homo sapiens, UniProt P49773)
Experiment: P-N bond cleavage of metabolite X by HINT1
Format: biochemical
Description: Biochemical assays studying prodrug cleavage have been described previously ([8]). In brief, the cleavages of GS2 by CATA, CES1, CES2, and HINT1 were assessed in vitro. The reaction substrates and products were monitored over time by high-performance liquid chromatography (HPLC).

Sequence of HINT1 (P49773 whole entry): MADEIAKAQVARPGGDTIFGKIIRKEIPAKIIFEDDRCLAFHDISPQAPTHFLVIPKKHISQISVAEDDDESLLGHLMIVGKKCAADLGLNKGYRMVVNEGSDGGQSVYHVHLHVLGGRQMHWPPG

| SMILES | HINT1 specific activity, P-N bond cleavage [pmol/min/µg] | HINT1 specific activity higher than toward metabolite X of GS-6620 [fold] |
| --- | --- | --- |
| C[C@H](NP(=O)(O)OC[C@H]1O[C@@](C#N)(c2ccc3c(N)ncnn23)[C@](C)(O)[C@@H]1O)C(=O)O [metabolite X of GS-6620] | 60 |  |
| CC(C)(NP(=O)(O)OC[C@H]1O[C@@](C#N)(c2ccc3c(N)ncnn23)[C@](C)(O)[C@@H]1O)C(=O)O [metabolite X of GS2] | 341 | 5.7 |
